Test results taken from article PMC7155171, “Probing the Open Global Health Chemical Diversity Library for Multistage-Active Starting Points for Next-Generation Antimalarials” (ACS Infectious Diseases, 2020).
Like-named read-outs stand apart in the source and are kept apart here.

What was measured:
[1] = system: P. falciparum Dd2 (PfLuc) line expressing firefly luciferase, asexual blood stage; experiment: microbe, parasite or virus in culture; type: cell-based, Plasmodium falciparum; conditions: Plasmodium falciparum
[2] = system: P. falciparum Dd2; experiment: SYBR green I asexual blood stage proliferation assay (96 h); type: cell-based, Plasmodium falciparum; conditions: Plasmodium falciparum, DD2, 11-pt dose response, 96hr
[3] = DD2, read-out: CDD P. falciparum Luciferase ABS 11-pt Reconfirmation Dose Response (48hr): IC50 (μM), 11-pt dose response, 48hr
[4] = DD2, 8-pt dose response, 96hr, read-out: CDD P. falciparum Luciferase ABS 8-pt Reconfirmation Dose Response (96hr): IC50
[5] = DD2, 8-pt dose response, 96hr, read-out: CDD P. falciparum Luciferase ABS 8-pt Reconfirmation Dose Response (96hr): Maximum inhibition (%)
[6] = DD2, 11-pt dose response, 48hr, read-out: CDD P. falciparum Luciferase ABS 11-pt Reconfirmation Dose Response (48hr): Maximum inhibition (%)
[7] = DD2, 11-pt dose response, 96hr, read-out: CDD P. falciparum Luciferase ABS 11-pt Reconfirmation Dose Response (96hr): IC50
[8] = DD2, 11-pt dose response, 96hr, read-out: CDD P. falciparum Luciferase ABS 11-pt Reconfirmation Dose Response (96hr): Maximum inhibition (%)
[9] = Sybr Green I, read-out: CDD P. falciparum Sybr Green I ABS 11-pt Reconfirmation Dose Response (96hr): IC50
[10] = Sybr Green I, read-out: CDD P. falciparum Sybr Green I ABS 11-pt Reconfirmation Dose Response (96hr): Maximum inhibition (%)

SMILES	IC50 [1, 3] [µM]	IC50 [1, 4] [µM]	Emax [1, 5] [%]	Emax [1, 6] [%]	IC50 [1, 7] [µM]	Emax [1, 8] [%]	IC50 [2, 9] [nM]	Emax [2, 10] [%]	IC50 ([1]; DD2, read-out: P. falciparum Luciferase ABS 11-pt Reconfirmation Dose Response (48hr): IC50, 11-pt dose response, 48hr) [µM]	IC50 ([1]; DD2, 8-pt dose response, 96hr, read-out: P. falciparum Luciferase ABS 8-pt Reconfirmation Dose Response (96hr): IC50) [µM]	Emax ([1]; DD2, 8-pt dose response, 96hr, read-out: P. falciparum Luciferase ABS 8-pt Reconfirmation Dose Response (96hr): Maximum inhibition (%)) [%]	Emax ([1]; DD2, 11-pt dose response, 48hr, read-out: P. falciparum Luciferase ABS 11-pt Reconfirmation Dose Response (48hr): Maximum inhibition (%)) [%]	IC50 ([1]; DD2, 11-pt dose response, 96hr, read-out: P. falciparum Luciferase ABS 11-pt Reconfirmation Dose Response (96hr): IC50) [µM]	Emax ([1]; DD2, 11-pt dose response, 96hr, read-out: P. falciparum Luciferase ABS 11-pt Reconfirmation Dose Response (96hr): Maximum inhibition (%)) [%]	IC50 ([2]; read-out: P. falciparum Sybr Green I ABS 11-pt Reconfirmation Dose Response (96hr): IC50) [nM]	Emax ([2]; read-out: P. falciparum Sybr Green I ABS 11-pt Reconfirmation Dose Response (96hr): Maximum inhibition (%)) [%]
Cc1nn(C)cc1C1=NS(=O)(=O)N(C)C(C(=O)Nc2ccc(Cl)cc2)=C1 [DDD01058696]	1.23	0.34	96.1	100	0.511	101	705	98.7	–	–	–	–	–	–	–	–
Cn1ccnc1CN(Cc1ccccn1)Cc1ccccc1Cl [DDD01058741]	2.68	0.59	93.9	94.3	0.592	100	6140	83.5	–	–	–	–	–	–	–	–
Cc1ncc(CN(Cc2ccccn2)Cc2ccccc2Cl)n1C [DDD01058742]	3.44	0.51	86.1	74	0.999	94.5	1540	67.5	–	–	–	–	–	–	–	–
Fc1ccc(F)c(CN2CCC(c3cc4ncccc4cn3)CC2)c1 [DDD01058752]	1.07	0.41	96.2	94.1	0.979	98	859	90.5	–	–	–	–	–	–	–	–
Fc1cccc(CN2CCC(c3cc4ncccc4cn3)CC2)c1F [DDD01058754]	1.06	0.78	94.4	95.6	0.571	99.9	309	86.9	–	–	–	–	–	–	–	–
Clc1cccc(N[C@H]2CCCN[C@H]2Cc2ccccc2)c1 [DDD01058816]	1.92	1.06	95.6	100	0.64	101	3540	94.8	–	–	–	–	–	–	–	–
Cc1cc(CN2CCc3nc(-c4ccncc4)nc(O)c3CC2)c(C)s1 [DDD01058881]	–	–	–	–	–	–	–	–	9.43	1.72	88.5	79	2.93	93.4	6280	78.2
FC(F)(F)c1cc(C2CCNCC2)nc(-c2ccsc2)n1 [DDD01058935]	> 12.5	0.67	–	64.4	> 1.39	92.1	4360	60.5	–	–	–	–	–	–	–	–
CC(C)(C)C(=O)N1C[C@H](c2ccsc2)[C@H]2CN(C3CCCCC3)CC[C@H]21 [DDD01058940]	> 12.5	0.84	83.6	59.1	2.03	90.2	8800	74.2	–	–	–	–	–	–	–	–
Cc1ccc(C2(CN3CCN(Cc4cnc(C)n4C)CC3)CC2)cc1 [DDD01059041]	1.95	0.25	–	77.8	0.532	–	1320	88.5	–	–	–	–	–	–	–	–
CN(C)CCN(C)C(=O)Cn1cccc2cc(-c3ccc(F)cc3)nc1-2 [DDD01059044]	1.87	0.54	95.7	95.1	1.9	98.3	1170	99.6	–	–	–	–	–	–	–	–
Cc1cccc(Nc2cccc(C3CCCN(Cc4ncc[nH]4)C3)n2)n1 (stereo not drawn) [DDD01059475]	1.69	1.07	95.8	98.9	> 1.39	100	965	92.2	–	–	–	–	–	–	–	–
CC(C)CNC(=O)C1(Cc2ccccc2-c2cccs2)CCNC1 (stereo not drawn) [DDD01059689]	> 12.5	0.92	73.8	49.4	> 1.39	87.3	> 12500	45.7	–	–	–	–	–	–	–	–
N[C@@H]1CCC[C@@H](Oc2ccc(F)cc2Oc2ccccc2)[C@@H]1O [DDD01059731]	> 1.4	0.69	93.5	89.8	> 1.39	98.4	4960	86.9	–	–	–	–	–	–	–	–
Cc1ccc(Oc2cc(F)ccc2O[C@@H]2CCC[C@@H](N)[C@H]2O)cc1 [DDD01059749]	2.7	0.54	92.7	98	> 1.39	100	2270	95.9	–	–	–	–	–	–	–	–
